System: 843782-103-R-J1-PDC complex spheroid viability
Experiment: Anticancer human tumor 843782-103-R-J1-PDC patient-derived lung adenocarcinoma cell line growth inhibition [RAS]
Conditions: for IC50: curve of first compound; for viability, T/C: stronger effect = lower value
Text: RAS pathway inhibitors in Combinations in Complex Spheroids
A high-throughput screen of multi-cell type tumor spheroids was designed to identify active combinations of RAS pathway inhibitors and targeted small molecules. Complex spheroids include a stromal component modeled by human endothelial cells (HUVEC) and fibroblasts modeled by human mesenchymal stem cells (MSCs). The concentration ranges selected for each drug and investigational agent were based upon clinically achievable concentrations if the clinical Cmax of the agent was known.
Compounds. The drugs and investigational agents: abemaciclib (NSC768073), cobimetinib (NSC768068), divarasib (GDC6063, NSC841802), docetaxel (NSC628503), GDC-1971 (RLY-1971, NSC841576), gemcitabine (NSC613327), inavolisib (NSC800729), ipatasertib (NSC767898), KB-0742 (NSC834161), MRTX-1133 (NSC836407), osimertinib (NSC779217), RMC-4630 (NSC839698), RMC-6236 (NSC851965), RMC-6291 (NSC852671), Ro-3306 (NSC812927), sapanisertib (NSC764658), SN-38 (NSC673596), staurosporine (NSC755774), SY5609 (NSC837396), and tovorafenib (DAY101, NSC766906), were obtained from the National Cancer Institute (NCI) Developmental Therapeutics Program Chemical Repository. The FDA-approved anticancer drug set is available from the NCI Developmental Therapeutics Program. […] The stock solutions were prepared in dimethyl sulfoxide (DMSO, Sigma-Aldrich, St. Louis, MO, cat. D2650) at 800-fold the tested concentration and stored at -70 degrees C prior to their use. All drugs and investigational agents were tested over a range starting from a high concentration at or near the clinical Cmax and decreasing in half-log increments. If the clinical Cmax for an agent had not been determined, the highest concentration tested was 10 microM.
Cell Culture. All cells were maintained in an incubator at 37 degrees C and 5% CO2 with 95% humidity. The PDC lines were cultured according to standard operating procedures established by the NCI PDMR. All PDCs were thawed and cultured in Matrigel-coated flasks prepared with a working solution of 1X Ham's F-12 nutrient mix, without supplementation (Invitrogen, Waltham, MA, cat. 11765054), 100 U/mL penicillin-streptomycin (Invitrogen, cat. 15140122), and 2.5% Matrigel (Corning Inc., Corning, NY, cat. 354248) for the first three passages. The 362531-283-R-J2-PDC and 782815-120-R-J1-PDC lines were cultured in 6C/Colon 1B media, which includes advanced DMEM/F-12 (Thermo Fisher Scientific, cat. 12634028), 10 mM HEPES (Thermo Fisher Scientific, cat. 15630080), 1X GlutaMAX supplement (Thermo Fisher Scientific, cat. 35050061), 0.1 mg/mL primocin (InvivoGen, San Diego, CA, cat. ant-pm-2), 10% defined fetal bovine serum, heat inactivated (HyClone Laboratories Inc., Logan, UT, cat. SH30070.03HI), 50% L-WRN conditioned media (ATCC, cat. CRL-3276), 1.25 mM N-Acetyl-L-cysteine (Sigma-Aldrich, cat. A9165), 10 mM nicotinamide (Sigma-Aldrich, cat. N0636), 1X B-27 supplement (Thermo Fisher Scientific, cat. 17504044), 1X N-2 supplement (Thermo Fisher Scientific, cat. 17502048), 50 ng/mL human EGF (Thermo Fisher Scientific, cat. PHG0311), and 10 microM Y-27632 dihydrochloride (Tocris Bioscience, cat. 1254). The K12877-001-R-J1-PDC line was cultured in 6I media, which includes all 6C/Colon 1B media plus 10 ng/mL human FGF-10 (PeproTech, cat. 100-26), 1 ng/mL human FGF-2 (PeproTech, cat. 100-18B), 1 µM prostaglandin E2 (Tocris Bioscience, cat. 2296), […] hydrocortisone (Sigma-Aldrich, cat. H4001), and […] bovine insulin (Sigma-Aldrich, cat. I6634). The K86415-001-R-J1-PDC line was cultured in 6D media, which includes all 6C/Colon 1B media components minus the L-WRN conditioned media. The 485176-168-R4-J1-PDC was cultured in PANC media, which includes all 6C/Colon 1B media plus 100 ng/mL human FGF-10 (PeproTech, cat. 100-26), 500 nM SB-431542 (Selleckchem, cat. S1067), and 10 nM gastrin (Tocris Bioscience, cat. 3006). […]
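Note: viability read after seven days of compound exposure.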

Compound: NC1c2ccccc2OC12CCN(c1cnc3c(N4CCCc5ncccc54)n[nH]c3n1)CC2 (configuration not stated) + C=CC(=O)N1CCN(c2nc(OCC3CCCN3C)nc3c(F)c(-c4nc(N)cc(C)c4C(F)(F)F)c(Cl)cc23)C(C)C1
- IC50 (second compound 0.00316 µM): 49.3 nM
- IC50 (second compound 0.01 µM): < 31.6 nM
- IC50 (second compound 0.0316 µM): < 31.6 nM
- IC50 (second compound 0.1 µM): 39.9 nM
- IC50 (second compound 0.316 µM): 44.1 nM
- IC50 (second compound 1 µM): 37.2 nM
- viability, T/C (second compound 0.00316 µM, first compound 0.0316 µM): 58.4%
- viability, T/C (second compound 0.00316 µM, first compound 0.1 µM): 35.8%
- viability, T/C (second compound 0.00316 µM, first compound 0.316 µM): 30.5%
- viability, T/C (second compound 0.00316 µM, first compound 1 µM): 23.7%
- viability, T/C (second compound 0.00316 µM, first compound 3.16 µM): 30.8%
- viability, T/C (second compound 0.00316 µM, first compound 10 µM): 16.8%
- viability, T/C (second compound 0.01 µM, first compound 0.0316 µM): 49.1%
- viability, T/C (second compound 0.01 µM, first compound 0.1 µM): 35.5%
- viability, T/C (second compound 0.01 µM, first compound 0.316 µM): 28.5%
- viability, T/C (second compound 0.01 µM, first compound 1 µM): 22.8%
- viability, T/C (second compound 0.01 µM, first compound 3.16 µM): 20.3%
- viability, T/C (second compound 0.01 µM, first compound 10 µM): 20.2%
- viability, T/C (second compound 0.0316 µM, first compound 0.0316 µM): 44.9%
- viability, T/C (second compound 0.0316 µM, first compound 0.1 µM): 34.4%
- viability, T/C (second compound 0.0316 µM, first compound 0.316 µM): 30.4%
- viability, T/C (second compound 0.0316 µM, first compound 1 µM): 25.6%
- viability, T/C (second compound 0.0316 µM, first compound 3.16 µM): 24.7%
- viability, T/C (second compound 0.0316 µM, first compound 10 µM): 21.3%
- viability, T/C (second compound 0.1 µM, first compound 0.0316 µM): 55%
- viability, T/C (second compound 0.1 µM, first compound 0.1 µM): 34%
- viability, T/C (second compound 0.1 µM, first compound 0.316 µM): 28.2%
- viability, T/C (second compound 0.1 µM, first compound 1 µM): 26.2%
- viability, T/C (second compound 0.1 µM, first compound 3.16 µM): 22.9%
- viability, T/C (second compound 0.1 µM, first compound 10 µM): 15%
- viability, T/C (second compound 0.316 µM, first compound 0.0316 µM): 54.4%
- viability, T/C (second compound 0.316 µM, first compound 0.1 µM): 39.8%
- viability, T/C (second compound 0.316 µM, first compound 0.316 µM): 29.7%
- viability, T/C (second compound 0.316 µM, first compound 1 µM): 23.1%
- viability, T/C (second compound 0.316 µM, first compound 3.16 µM): 20.9%
- viability, T/C (second compound 0.316 µM, first compound 10 µM): 22.1%
- viability, T/C (second compound 1 µM, first compound 0.0316 µM): 52.1%
- viability, T/C (second compound 1 µM, first compound 0.1 µM): 38.3%
- viability, T/C (second compound 1 µM, first compound 0.316 µM): 25.2%
- viability, T/C (second compound 1 µM, first compound 1 µM): 25.4%
- viability, T/C (second compound 1 µM, first compound 3.16 µM): 25.3%
- viability, T/C (second compound 1 µM, first compound 10 µM): 18%

Reference: PubChem BioAssay AID2060883 (Molecular Pharmacology Branch, DTP, NCI, 2025)
